Data as given in PMC11305846 (ALTEX, 2024).

Legend:
[1] = system: iPSC-CM; assay: Ca2+ flux phenotypic assay; conditions: for beat frequency from Ca2+ flux traces: 100 μM, 90 minutes after treatment, vehicle ~30 beats per minute
[2] = system: iPSC-Hep; assay: High-content imaging phenotypic assay in iPSC-derived hepatocytes, 48 h exposure; assay type: cell-based, human; conditions: 0.1-100 μM, benchmark 1 SD

## O=C(O)C(F)(F)C(F)(F)C(F)(F)C(F)(F)C(F)(F)C(F)(F)C(F)(F)C(F)(F)C(F)(F)C(F)(F)C(F)(F)C(F)(F)C(F)(F)F [PFTeDA, Perfluorotetradecanoic acid]
[1]; 0.1-100 μM, 90 min
  negative chronotropy: effect that reached benchmark response (5% change): decreased peak frequency

## N.O=C(O)C(F)(F)C(F)(F)C(F)(F)C(F)(F)C(F)(F)C(F)(F)C(F)(F)F [NH4PFOA, Ammonium perfluorooctanoate]
[1]; 0.1-100 μM, 90 min
  negative chronotropy: effect that reached benchmark response (5% change): decreased peak frequency

## O=C(O)C(F)(F)C(F)(F)C(F)(F)C(F)(F)C(F)(F)C(F)(F)C(F)(F)F [PFOA, Perfluorooctanoic acid]
[2]
  concentration-response phenotypic effect on cell mean area: increased mean cell area
[1]; 0.1-100 μM, 90 min
  negative chronotropy: effect that reached benchmark response (5% change): decreased peak frequency

## O=S(=O)(O)CCC(F)(F)C(F)(F)C(F)(F)C(F)(F)C(F)(F)C(F)(F)C(F)(F)C(F)(F)F [8:2 FTS, 8:2 Fluorotelomer sulfonic acid]
[1]; 0.1-100 μM, 90 min
  negative chronotropy: effect that reached benchmark response (5% change): decreased peak frequency

## O=C(O)C(F)(F)C(F)(F)OC(F)(F)F [PFMPA, Perfluoro-3-methoxypropanoic acid]
[1]; 0.1-100 μM, 90 min
  negative chronotropy: effect that reached benchmark response (5% change): decreased peak frequency

## O=S(=O)(O)C(F)(F)C(F)(F)C(F)(F)C(F)(F)F [PFBS, Perfluorobutanesulfonic acid]
[1]
  beat frequency from Ca2+ flux traces: 24 beats per minute
[1]; 0.1-100 μM, 90 min
  negative chronotropy: effect that reached benchmark response (5% change): decreased peak frequency

## O=S(=O)([O-])C(F)(F)C(F)(F)C(F)(F)C(F)(F)C(F)(F)C(F)(F)C(F)(F)C(F)(F)C(F)(F)C(F)(F)F.[Na+] [PFDS-Na, Sodium perfluorodecanesulfonate]
[1]; 0.1-100 μM, 90 min
  QT prolongation: effect that reached benchmark response (5% change): QT prolongation
  negative chronotropy: effect that reached benchmark response (5% change): decreased peak frequency

## O=C(O)C(F)(F)C(F)(F)C(F)(F)C(F)(F)C(F)(F)C(F)(F)C(F)(F)C(F)(F)C(F)(F)C(F)(F)C(F)(F)C(F)(F)F [PFTiDA, Perfluorotridecanoic acid]
[1]
  beat frequency from Ca2+ flux traces: 12 beats per minute
[1]; 0.1-100 μM, 90 min
  negative chronotropy: effect that reached benchmark response (5% change): decreased peak frequency
